This is an account of results in US10730882B2, “2-aminoquinazoline derivatives as P70S6 kinase inhibitors” (SENTINEL ONCOLOGY LIMITED, priority 2015, dated 2020).

Read-outs that look alike come from different tables or passages of the source.

The IC50 is the midpoint of a concentration-inhibition curve.

One series relates to FXS mice (Fmr1 KO). As to the kind of experiment: audiogenic seizure assay (AGS), in vivo model of Fragile X Syndrome. The source says:
(d) Evaluation of Compounds in the Audiogenic Seizure Assay, an In Vivo Model of Fragile X Syndrome (FXS)
Seizures occur in conjunction with FXS and autism in up to one-quarter of children with these disorders (Berry-Kravis E (2002) Epilepsy in fragile X syndrome. Dev. Med. Child Neurol. 44(11):724-728). […] The audiogenic seizure assay (AGS) is a well-documented mouse model of FXS (Audiogenic seizures susceptibility in transgenic mice with fragile X syndrome, Epilepsia. 2000 January; 41(1):19-23). In such a model it is possible to dose compounds to observe effects on susceptibility of the mice to audiogenic seizures. The following AGS experiment was set up to test the efficacy of compounds of this application:
The following experiment design was used:
Strain of FXS mouse used: FVB background
Vehicle used: 10% DMSO/90% hydroxypropyl-β-cyclodextrin (20% w/v aqueous)
Animals were assessed in AGS following 7 consecutive days of dosing.
The experimental chamber consisted of a plastic cage of dimensions 25×25×47 cm in which a doorbell (Electrical bell Heath Zenith, model 172C-A) had been mounted on the cage roof.
Mice were taken from their housing room one by one and transferred into the experimental chamber and allowed to explore the novel environment (basal noise […]) for a period of 30 seconds after which point the bell was rung (124 dB) for a period of 60 seconds.
The resulting motor responses were classified using a scale modified from the one originally described by Jobe et al. (1973): no response (NR: pause or continuous exploration), wild running (WR), seizure (S) or respiratory arrest and/or death (RA). The motor response rate is defined as the percentage of animals per group responding to the stimulus.

Another series addresses p70S6K (h) (Homo sapiens (Human), UniProt P23443). As to the kind of experiment: p70S6K (h) kinase assay (radiometric, [γ-33P-ATP]). In kind it is biochemical. The conditions noted are these: read-out: (a) p70S6K1 IC50. How it is done: (a) Determination of p70S6 Inhibitory Activity
The ability of compounds of the invention to inhibit P70S6 kinase may be determined using the protocol below.
20 mM MOPS, 1 mM EDTA, 0.01% Brij-35, 5% Glycerol, 0.1% b-mercaptoethanol, 1 mg/mL BSA
In a final reaction volume of 25 μL, p70S6K (h) (5-10 mU) is incubated with 8 mM MOPS pH 7.0, 0.2 mM EDTA, 100 μM KKRNRTLTV, 10 mM Mg acetate and [γ-33P-ATP](specific activity approx. 500 cpm/pmol, concentration as required). The reaction is initiated by the addition of the MgATP mix. After incubation for 40 minutes at room temperature, the reaction is stopped by the addition of 5 μL of a 3% phosphoric acid solution. 10 μL of the reaction mixture is then spotted onto a P30 filtermat and washed three times for 5 minutes in 75 mM phosphoric acid and once in methanol prior to drying and scintillation counting.

Series [1] in a line: in vivo cassette mouse model: brain and plasma concentrations following oral dosing. The conditions noted are these: male CD-1 mice, 2.5 mg/kg per compound; for Kp at 3 h: brain and plasma, read-out: (b) Brain:Plasma ratio at 3 hours. As for the experimental part:
(b) Evaluation of Brain and Plasma Concentrations in an In Vivo Cassette Mouse Model
The compounds of this invention were evaluated in an in vivo cassette mouse model to determine brain and plasma concentrations following oral dosing. This is an industry-standard and recognised means to assess brain penetration of small molecules (for recent literature article, refer to: in vitro permeability analysis, pharmacokinetic and brain distribution study in mice of imperatorin, isoimperatorin and cnidilin in Radix Angelicae Dahuricae, Fitoterapia, Volume 85, March 2013, Pages 144-153). It is also recognised that higher brain concentrations (and higher ratios of brain:plasma concentration) lead to greater exposure in the brain—this is clearly advantageous if the brain is the site of action.
For a single cassette study, male CD-1 mice were used (n=3 per timepoint, three timepoints: 1.0 hr, 3.0 hr and 8.0 hr).
5 compounds were dosed PO per cassette (dose level 2.5 mg/kg per compound, dose conc. 0.25 mg/ml, dose volume 10.0 ml/kg).
Formulation used to solubilize compounds: 10% DMSO/90% hydroxypropyl-β-cyclodextrin (20% w/v aqueous)
Sampling was terminal and plasma and brain matrices were generated. To prepare plasma samples, protein was precipitated using acetonitrile. To prepare brain samples, homogenisation and protein precipitation was performed with acetonitrile. Samples were analysed using HPLC-TOF MS using electrospray ionisation.
The brain and plasma concentrations and brain-plasma ratios observed for the compounds tested are set out in the table below.

The test system of a further series is MDA-MB-231 cells. As to the kind of experiment: in vivo model of triple negative breast cancer (TNBC): tumour initiation and metastasis. Also noted: species or system female athymic nude mice. The source says:
(c) Evaluation of Efficacy of Compounds in Counter-Acting Tumour Initiation and Metastasis in an In Vivo Model of Triple Negative Breast Cancer (TNBC)
It is known that S6K1 has a crucial role in the recurrence of TNBC cancers following surgery, mainly through the activity of S6K1 in promoting survival of cancer cells in the host via phosphorylation and activation of the anti-apoptotic protein Bcl2 and of Gli1 (Belletti 2014). In addition, S6K1 promotes metastasis of TNBC cells (Akar 2010, Hung 2014).
In order to test the efficacy of an inhibitor of S6K1 in an in vivo model of tumour initiation and metastasis, the following experiment was established:
A total of 22 female athymic nude mice (Hsd:Athymic Nude-Foxn1^nu) were purchased from Harlan (UK) and acclimatised for 7 days prior to study commencement. Animals were housed in IVC cages (5 per cage) with individual mice identified by ear punch. All animals were allowed free access to a standard certified commercial diet and sanitised water during the study. The holding room was maintained under standard conditions: 20-24° C., 40-70% humidity and a 12 h light/dark cycle.
On day −1, animals were randomly assigned to treatment groups as indicated in the table below, and drug treatment commenced. On day 0, MDA-MB-231 cells (1×10^6 in matrigel) were implanted into the second mammary fat pad.
The dosing route was PO and the formulation was as follows: 10% DMSO/90% hydroxypropyl-β-cyclodextrin (20% w/v aqueous).
During the experiment, the following outcome measures were assessed:
(1) Time to palpation of tumour (latency) (2) tumour volume (3) tumour and organ weights as a measure of metastasis (4) visual appearance of metastatic nodules in the lungs.
At necroscopy the lungs of the vehicle and treated animals were examined for presence of metastatic nodules: […]

[2] abbreviates: FXS (Fmr1 KO) mice, n=10, 50 mg/kg QD x 7 PO, mono-HCl salt, bell 124 dB for 60 seconds.
The mark [3] stands for this setting: FXS mice, FVB background, following 7 consecutive days of dosing.
[4] abbreviates: brain, read-out: (b) Brain conc. at 3 hours.
Where [5] appears, read: plasma, read-out: (b) Plasma conc. at 3 hours.
Setting [6] is: mono-HCl salt, 100 mg/kg p.o. BID, 21 days, compared to control.

Sequence of p70S6K (h) (P23443 whole entry): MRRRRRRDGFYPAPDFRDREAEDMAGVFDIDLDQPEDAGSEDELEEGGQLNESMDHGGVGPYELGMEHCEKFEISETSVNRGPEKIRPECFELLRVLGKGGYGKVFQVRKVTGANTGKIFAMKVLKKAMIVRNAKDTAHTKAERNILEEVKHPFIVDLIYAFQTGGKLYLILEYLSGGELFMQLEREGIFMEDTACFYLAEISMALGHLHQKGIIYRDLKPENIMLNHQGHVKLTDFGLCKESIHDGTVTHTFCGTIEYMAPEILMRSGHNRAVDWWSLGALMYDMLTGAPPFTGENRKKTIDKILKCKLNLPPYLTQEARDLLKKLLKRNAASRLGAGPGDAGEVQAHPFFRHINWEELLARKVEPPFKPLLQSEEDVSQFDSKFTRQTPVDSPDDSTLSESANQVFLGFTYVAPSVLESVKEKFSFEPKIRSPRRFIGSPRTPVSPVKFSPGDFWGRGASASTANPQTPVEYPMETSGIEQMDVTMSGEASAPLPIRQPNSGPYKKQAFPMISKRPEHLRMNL

As to `C[C@@H](Nc1ncc2cc(-c3ncnc4[nH]ncc34)ccc2n1)c1ccccc1` [Example 1, ((R)-1-Phenyl-ethyl)-[6-(1H-pyrazolo[3,4-d]pyrimidin-4-yl)-quinazolin-2-yl]-amine], in the series with FXS mice (Fmr1 KO) (setting [2]), the “NR (no response: pause or continuous exploration), number of animals” value is 9; the “RA (respiratory arrest and/or death), number of animals” value was determined as 0; the “S (seizure), number of animals” value was found to be 0; the “WR (wild running), number of animals” value was 1. In addition, in the series on FXS mice (Fmr1 KO) (setting [3]), the “incidence of audiogenic seizures” value is “reduced” and the “severity of response (audiogenic seizure)” value is “reduced”. At p70S6K (h), the IC50 turned out to be 13 nM. In addition, the Kp at 3 h in series [1] was found to be 2.7. Besides, the concentration at 3 h in series [1] (setting [4]) was 1600 nM. The concentration at 3 h in series [1] (setting [5]) was determined as 580 nM. Further, in the series on MDA-MB-231 cells (100 mg/kg BID x 21, lungs examined at necroscopy, mono-HCl salt), the “Mean no. of lung nodules per animal” value was 0. For the same compound, the “metastatic burden in the lungs” value in the series with MDA-MB-231 cells (at necroscopy, spontaneous metastasis from a TNBC primary tumour) is “effective in reducing the metastatic burden in the lungs”. For the same compound, the tumour weight entry in the series on MDA-MB-231 cells (day 21, mono-HCl salt, 100 mg/kg p.o. BID, compared to vehicle) was “weighed significantly less”. Moreover, in the series with MDA-MB-231 cells (day 21, mono-HCl salt, 100 mg/kg p.o. BID, compared to vehicle treated group), the weight of liver entry was “reduction in weight of liver”. In the series on MDA-MB-231 cells (setting [6]), the “rate of incidence of tumour” value is recorded as “decreases the rate of incidence”, the “time until appearance (palpation) of tumour” value is reported as “delays time until appearance (palpation) of tumour” and the tumour volume entry is “significant reduction in volume of tumours”.
`C[C@@H](Nc1ncc2cc(-c3ncnc4[nH]ncc34)ccc2n1)c1cccc(F)c1` [Example 3, ((R)-1-(3-Fluoro-phenyl)-ethyl)-[6-(1H-pyrazolo[3,4-d]pyrimidin-4-yl)-quinazolin-2-yl]-amine]: the IC50 at p70S6K (h) amounted to 21 nM. In addition, the Kp at 3 h in series [1] amounted to 3.7. The concentration at 3 h in series [1] (setting [4]) amounted to 1680 nM; in series [1] (setting [5]), 460 nM.
For `C[C@@H](Nc1ncc2cc(-c3ncnc4[nH]ncc34)ccc2n1)c1ccc(F)cc1` [Example 4, ((R)-1-(4-Fluoro-phenyl)-ethyl)-[6-(1H-pyrazolo[3,4-d]pyrimidin-4-yl)-quinazolin-2-yl]-amine], in that order: 22 nM, 2.2, 1510 nM and 680 nM.
`Fc1cccc(CNc2ncc3cc(-c4ncnc5[nH]ncc45)ccc3n2)c1` [Example 10, (3-Fluorobenzyl)-[6-(1H-pyrazolo[3,4-d]pyrimidin-4-yl)-quinazolin-2-yl]-amine]: the IC50 on p70S6K (h) was 18 nM. In addition, the Kp at 3 h in series [1] stood at 1.7. In addition, the concentration at 3 h in series [1] (setting [4]) was found to be 840 nM; in series [1] (setting [5]), 500 nM.
